From the supplement of paper PMC10307832

Experiments:
Assay in all cases: relative viability (nuclei count vs DMSO), 5 days (fraction); higher = more cells survive
A-427 = test system: A-427
Method in brief: (§1)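 Lung cancer cell lines were pin-tool dosed in 1536-well plates on the day after seeding, with either a lone drug or a fixed anchor-drug dose plus five library-drug doses (not always all listed) in √10 steps. Nuclei were counted on 4× images after 5 days. Relative viability is the ratio of treated-well to vehicle-well nuclei counts, with each value a median of duplicate plates.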

NCI-H1915 = test system: NCI-H1915
Method in brief: as §1

201T = test system: 201T
Method in brief: as §1

NCI-H596 = test system: NCI-H596
Method in brief: as §1

NCI-H1793 = test system: NCI-H1793
Method in brief: as §1

LXF-289 = test system: LXF-289
Method in brief: as §1

EMC-BAC-2 = test system: EMC-BAC-2
Method in brief: as §1

HCC-827 = test system: HCC-827
Method in brief: as §1

BEN = test system: BEN
Method in brief: as §1

NCI-H2126 = test system: NCI-H2126
Method in brief: as §1

EPLC-272H = test system: EPLC-272H
Method in brief: as §1

NCI-H358 = test system: NCI-H358
Method in brief: as §1

COR-L23 = test system: COR-L23
Method in brief: as §1

EKVX = test system: EKVX
Method in brief: as §1

NCI-H460 = test system: NCI-H460
Method in brief: as §1

LCLC-103H = test system: LCLC-103H
Method in brief: as §1

LK-2 = test system: LK-2
Method in brief: as §1

NCI-H1650 = test system: NCI-H1650
Method in brief: as §1

NCI-H2087 = test system: NCI-H2087
Method in brief: as §1

NCI-H1651 = test system: NCI-H1651
Method in brief: as §1

SW 1573 = test system: SW 1573
Method in brief: as §1

NCI-H2347 = test system: NCI-H2347
Method in brief: as §1

HCC-44 = test system: HCC-44
Method in brief: as §1

## O=c1[nH]c2ccccc2n1C1CCN(CCCC(c2ccc(F)cc2)c2ccc(F)cc2)CC1 [Pimozide] + O=C(c1cc(Cc2n[nH]c(=O)c3ccccc23)ccc1F)N1CCN(C(=O)C2CC2)CC1 [Olaparib] (partner 8 µM)
A-427; first compound 0.08 µM
  relative viability: 0.708
A-427; first compound 0.253 µM
  relative viability: 0.681
A-427; first compound 0.8 µM
  relative viability: 0.661
A-427; first compound 2.53 µM
  relative viability: 0.691
A-427; first compound 8 µM
  relative viability: 0.685
NCI-H1915; first compound 0.08 µM
  relative viability: 0.259
NCI-H1915; first compound 0.253 µM
  relative viability: 0.241
NCI-H1915; first compound 2.53 µM
  relative viability: 0.246
NCI-H1915; first compound 8 µM
  relative viability: 0.243
201T; first compound 0.08 µM
  relative viability: 0.876
201T; first compound 0.253 µM
  relative viability: 0.836
201T; first compound 0.8 µM
  relative viability: 0.807
201T; first compound 2.53 µM
  relative viability: 0.821
201T; first compound 8 µM
  relative viability: 0.719
NCI-H596; first compound 0.08 µM
  relative viability: 0.768
NCI-H596; first compound 0.253 µM
  relative viability: 0.755
NCI-H596; first compound 0.8 µM
  relative viability: 0.663
NCI-H596; first compound 2.53 µM
  relative viability: 0.745
NCI-H596; first compound 8 µM
  relative viability: 0.779
NCI-H1793; first compound 0.08 µM
  relative viability: 0.762
NCI-H1793; first compound 0.253 µM
  relative viability: 0.826
NCI-H1793; first compound 0.8 µM
  relative viability: 0.875
NCI-H1793; first compound 2.53 µM
  relative viability: 0.772
NCI-H1793; first compound 8 µM
  relative viability: 0.706
LXF-289; first compound 0.08 µM
  relative viability: 1.09
LXF-289; first compound 0.253 µM
  relative viability: 1.04
LXF-289; first compound 0.8 µM
  relative viability: 1.01
LXF-289; first compound 2.53 µM
  relative viability: 0.937
LXF-289; first compound 8 µM
  relative viability: 1.03
EMC-BAC-2; first compound 0.08 µM
  relative viability: 0.506
EMC-BAC-2; first compound 0.253 µM
  relative viability: 0.463
EMC-BAC-2; first compound 0.8 µM
  relative viability: 0.455
EMC-BAC-2; first compound 2.53 µM
  relative viability: 0.456
EMC-BAC-2; first compound 8 µM
  relative viability: 0.448
HCC-827; first compound 0.253 µM
  relative viability: 0.627
HCC-827; first compound 0.8 µM
  relative viability: 0.7
HCC-827; first compound 2.53 µM
  relative viability: 0.747
HCC-827; first compound 8 µM
  relative viability: 0.678
BEN; first compound 0.08 µM
  relative viability: 1.15
BEN; first compound 0.253 µM
  relative viability: 1.15
BEN; first compound 0.8 µM
  relative viability: 1.1
BEN; first compound 2.53 µM
  relative viability: 1.07
BEN; first compound 8 µM
  relative viability: 1.29
NCI-H2126; first compound 0.08 µM
  relative viability: 0.922
NCI-H2126; first compound 0.253 µM
  relative viability: 0.89
NCI-H2126; first compound 0.8 µM
  relative viability: 0.944
NCI-H2126; first compound 2.53 µM
  relative viability: 0.92
NCI-H2126; first compound 8 µM
  relative viability: 0.858
EPLC-272H; first compound 0.08 µM
  relative viability: 0.869
EPLC-272H; first compound 0.253 µM
  relative viability: 0.709
EPLC-272H; first compound 0.8 µM
  relative viability: 0.847
EPLC-272H; first compound 2.53 µM
  relative viability: 0.554
EPLC-272H; first compound 8 µM
  relative viability: 0.646
NCI-H358; first compound 0.08 µM
  relative viability: 0.596
NCI-H358; first compound 0.253 µM
  relative viability: 0.583
NCI-H358; first compound 0.8 µM
  relative viability: 0.561
NCI-H358; first compound 2.53 µM
  relative viability: 0.508
NCI-H358; first compound 8 µM
  relative viability: 0.595
COR-L23; first compound 0.08 µM
  relative viability: 0.325
COR-L23; first compound 0.253 µM
  relative viability: 0.308
COR-L23; first compound 0.8 µM
  relative viability: 0.386
COR-L23; first compound 2.53 µM
  relative viability: 0.383
COR-L23; first compound 8 µM
  relative viability: 0.336
EKVX; first compound 0.253 µM
  relative viability: 0.783
EKVX; first compound 0.8 µM
  relative viability: 0.823
EKVX; first compound 2.53 µM
  relative viability: 0.854
EKVX; first compound 8 µM
  relative viability: 0.795
NCI-H460; first compound 0.08 µM
  relative viability: 0.499
NCI-H460; first compound 0.253 µM
  relative viability: 0.48
NCI-H460; first compound 0.8 µM
  relative viability: 0.394
NCI-H460; first compound 2.53 µM
  relative viability: 0.361
NCI-H460; first compound 8 µM
  relative viability: 0.398
LCLC-103H; first compound 0.08 µM
  relative viability: 0.782
LCLC-103H; first compound 0.253 µM
  relative viability: 0.721
LCLC-103H; first compound 0.8 µM
  relative viability: 0.722
LCLC-103H; first compound 2.53 µM
  relative viability: 0.695
LCLC-103H; first compound 8 µM
  relative viability: 0.72
LK-2; first compound 0.08 µM
  relative viability: 0.643
LK-2; first compound 0.253 µM
  relative viability: 0.687
LK-2; first compound 0.8 µM
  relative viability: 0.765
LK-2; first compound 2.53 µM
  relative viability: 0.693
LK-2; first compound 8 µM
  relative viability: 0.691
NCI-H1650; first compound 0.08 µM
  relative viability: 0.775
NCI-H1650; first compound 0.253 µM
  relative viability: 0.664
NCI-H1650; first compound 0.8 µM
  relative viability: 0.762
NCI-H1650; first compound 2.53 µM
  relative viability: 0.962
NCI-H1650; first compound 8 µM
  relative viability: 0.805
NCI-H2087; first compound 0.08 µM
  relative viability: 0.679
NCI-H2087; first compound 0.253 µM
  relative viability: 0.582
NCI-H2087; first compound 2.53 µM
  relative viability: 0.579
NCI-H2087; first compound 8 µM
  relative viability: 0.45
NCI-H1651; first compound 0.08 µM
  relative viability: 0.203
NCI-H1651; first compound 0.253 µM
  relative viability: 0.189
NCI-H1651; first compound 0.8 µM
  relative viability: 0.177
NCI-H1651; first compound 2.53 µM
  relative viability: 0.182
NCI-H1651; first compound 8 µM
  relative viability: 0.187
SW 1573; first compound 0.08 µM
  relative viability: 0.457
SW 1573; first compound 0.253 µM
  relative viability: 0.442
SW 1573; first compound 0.8 µM
  relative viability: 0.448
SW 1573; first compound 2.53 µM
  relative viability: 0.38
SW 1573; first compound 8 µM
  relative viability: 0.391
NCI-H2347; first compound 0.08 µM
  relative viability: 0.663
NCI-H2347; first compound 0.253 µM
  relative viability: 0.556
NCI-H2347; first compound 0.8 µM
  relative viability: 0.577
NCI-H2347; first compound 2.53 µM
  relative viability: 0.519
NCI-H2347; first compound 8 µM
  relative viability: 0.587
HCC-44; first compound 0.08 µM
  relative viability: 1
HCC-44; first compound 0.253 µM
  relative viability: 1.02
HCC-44; first compound 0.8 µM
  relative viability: 0.938
HCC-44; first compound 2.53 µM
  relative viability: 0.973
HCC-44; first compound 8 µM
  relative viability: 0.931
